Test results from patent publication US9018206B2, “Carboxamide compounds and their use as calpain inhibitors” (AbbVie Deutschland GmbH & Co. KG, priority 2009, dated 2015).

Assays:
Format in all cases: biochemical
[1] = molecular target: T1, cathepsin L isolated from human liver (Homo sapiens, UniProt P07711); experiment: Cathepsin L enzyme inhibition in vitro (kinetic fluorescence assay); settings: Ki(cathepsin L)/Ki(calpain) ratio
T1 construct: cathepsin L—isolated from human liver; purchased Calbiochem 219402; host or cells: human liver (tissue-derived)
T1 sequence (P07711 114-333): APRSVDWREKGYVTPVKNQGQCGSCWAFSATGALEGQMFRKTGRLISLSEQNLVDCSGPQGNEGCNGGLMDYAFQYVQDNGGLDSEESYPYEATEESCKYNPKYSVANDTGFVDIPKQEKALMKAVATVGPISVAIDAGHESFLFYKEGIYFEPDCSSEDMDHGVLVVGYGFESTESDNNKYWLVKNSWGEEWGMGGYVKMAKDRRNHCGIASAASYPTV
Experimental: (§1) Testing for blockade of the corresponding enzymic activities was carried out by means of kinetic fluorescence assays (excitation 390 nm, emission 460 nm).
(§2) Apparent Ki values were calculated from the experimentally determined IC50 values by the Cheng-Prussoff relation assuming a reversible competitive enzyme inhibition. The Km values of the substrates used under the assay conditions indicated above were: 90 μM (Z-Phe-Arg-AMC, cathepsin B), 10 μM (Z-Gly-Pro-Arg-AMC, cathepsin K), 2 μM (Z-Phe-Arg-AMC, cathepsin L), and 30 μM (Z-Val-Val-Arg-AMC, cathepsin S).
(§3) The indicated Ki values are averages of the inhibition constants calculated on the basis of 2 to 4 independent dose-effect plots.
(§4) • 20 nM calpain-I—isolated from human erythrocytes (Calbiochem #208713), 100 μM Suc-Leu-Tyr-AMC (Bachem #I-1355) as substrate in buffer with 62 mM imidazole, 0.3 mM CaCl2, 0.10% CHAPS, 0.05% BSA, 1 mM DTT at pH 7.3 and room temperature. 1. Cathepsin B: • 0.25 nM cathepsin B—isolated from human liver (Calbiochem #219362), 100 μM Z-Phe-Arg-AMC (Bachem #I-1160) as substrate 50 mM MES, 2 mM EDTA, 0.05% Brij 35, 2.5 mM L-cysteine, pH 6.0, room temperature. 3. Cathepsin K: • 3 nM cathepsin K activated from recombinant human procathepsin K from E. coli (Calbiochem #342001), 10 μM Z-Gly-Pro-Arg-AMC (Biomol #P-142) as substrate in 50 mM MES, 2 mM EDTA, 0.05% Brij 35, 2.5 mM L-cysteine, pH 6.0, room temperature. 4. Cathepsin L: • 1 nM cathepsin L—isolated from human liver (Calbiochem #219402), 2 μM Z-Phe-Arg-AMC (Bachem #I-1160) as substrate in 50 mM MES, 2 mM EDTA, 0.05% Brij 35, 2.5 mM L-cysteine, pH 6.0, room temperature. 5. Cathepsin S: • 0.5 nM recombinant human cathepsin S from E. coli (Calbiochem #219343), 20 μM Z-Val-Val-Arg-AMC (Bachem #I-1540) as substrate in 50 mM MES, 2 mM EDTA, 0.05% Brij 35, 2.5 mM L-cysteine, pH 6.0, room temperature.

[2] = molecular target: T2, cathepsin B isolated from human liver (Homo sapiens, UniProt P07858); experiment: Cathepsin B enzyme inhibition in vitro (kinetic fluorescence assay); settings: Ki(cathepsin B)/Ki(calpain) ratio
T2 construct: cathepsin B—isolated from human liver; purchased Calbiochem 219362; host or cells: human liver (tissue-derived)
Experimental: as §1, §2, §3, §4

[3] = molecular target: T3, calpain-I isolated from human erythrocytes (Homo sapiens, UniProt P07384); experiment: Calpain I enzyme inhibition in vitro (kinetic fluorescence assay); settings: apparent Ki from IC50 (Cheng-Prussoff); 20 nM calpain-I, 100 μM Suc-Leu-Tyr-AMC, pH 7.3, room temperature
T3 construct: calpain-I—isolated from human erythrocytes; purchased Calbiochem 208713; host or cells: human erythrocytes (tissue-derived)
T3 sequence (P07384 1-714): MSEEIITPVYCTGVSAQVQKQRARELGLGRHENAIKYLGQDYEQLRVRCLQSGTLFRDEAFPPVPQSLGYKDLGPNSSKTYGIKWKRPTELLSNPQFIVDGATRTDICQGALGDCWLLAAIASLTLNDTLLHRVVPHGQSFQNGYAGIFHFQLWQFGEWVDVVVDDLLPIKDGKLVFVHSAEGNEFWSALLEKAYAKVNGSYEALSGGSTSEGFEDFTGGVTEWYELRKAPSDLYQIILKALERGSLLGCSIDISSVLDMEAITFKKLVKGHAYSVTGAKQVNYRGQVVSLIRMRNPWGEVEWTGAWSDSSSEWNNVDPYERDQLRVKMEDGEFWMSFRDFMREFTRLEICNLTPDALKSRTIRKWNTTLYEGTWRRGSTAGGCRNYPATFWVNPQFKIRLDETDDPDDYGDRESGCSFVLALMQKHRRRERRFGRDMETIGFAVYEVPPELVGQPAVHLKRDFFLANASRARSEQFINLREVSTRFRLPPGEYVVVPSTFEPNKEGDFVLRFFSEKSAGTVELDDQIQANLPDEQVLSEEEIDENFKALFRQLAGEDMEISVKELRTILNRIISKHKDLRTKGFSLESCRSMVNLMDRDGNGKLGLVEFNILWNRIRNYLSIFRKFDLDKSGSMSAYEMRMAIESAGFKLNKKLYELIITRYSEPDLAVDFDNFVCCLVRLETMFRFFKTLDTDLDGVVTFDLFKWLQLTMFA
T3 sequence (P04632 1-268 partner): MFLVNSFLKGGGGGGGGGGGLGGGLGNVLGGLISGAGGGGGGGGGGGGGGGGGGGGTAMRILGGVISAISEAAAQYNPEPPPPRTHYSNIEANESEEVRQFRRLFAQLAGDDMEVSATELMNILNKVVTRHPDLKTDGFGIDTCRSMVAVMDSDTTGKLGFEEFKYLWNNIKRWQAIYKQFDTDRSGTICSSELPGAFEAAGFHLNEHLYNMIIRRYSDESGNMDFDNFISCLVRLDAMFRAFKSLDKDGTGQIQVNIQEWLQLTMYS
Experimental: as §1, §2, §3, §4

[4] = molecular target: T4, recombinant human cathepsin S (Homo sapiens, UniProt P25774); experiment: Cathepsin S enzyme inhibition in vitro (kinetic fluorescence assay); settings: Ki(cathepsin S)/Ki(calpain) ratio
T4 construct: purchased Calbiochem 219343; host or cells: E. coli
T4 sequence (P25774 115-331): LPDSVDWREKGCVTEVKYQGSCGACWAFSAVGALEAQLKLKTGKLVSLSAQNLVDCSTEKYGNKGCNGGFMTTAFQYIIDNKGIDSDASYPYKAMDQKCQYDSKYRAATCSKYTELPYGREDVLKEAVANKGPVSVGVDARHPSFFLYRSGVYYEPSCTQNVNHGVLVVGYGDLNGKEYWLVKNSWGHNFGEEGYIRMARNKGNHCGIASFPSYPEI
Experimental: as §1, §2, §3, §4

[5] = molecular target: T5, cathepsin K activated from recombinant human procathepsin K (Homo sapiens, UniProt P43235); experiment: Cathepsin K enzyme inhibition in vitro (kinetic fluorescence assay); settings: Ki(cathepsin K)/Ki(calpain) ratio
T5 construct: purchased Calbiochem 342001; host or cells: E. coli
T5 sequence (P43235 115-329): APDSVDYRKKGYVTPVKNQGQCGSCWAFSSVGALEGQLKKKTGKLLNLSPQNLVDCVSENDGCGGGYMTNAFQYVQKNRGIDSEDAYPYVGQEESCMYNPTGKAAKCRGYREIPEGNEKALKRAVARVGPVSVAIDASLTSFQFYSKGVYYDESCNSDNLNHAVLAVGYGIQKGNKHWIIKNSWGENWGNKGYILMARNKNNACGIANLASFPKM
Experimental: as §1, §2, §3, §4

SMILES | Sel cat. L [1] | Sel cat. B [2] | Ki [3] [nM] | Sel cat. S [4] | Sel cat. K [5]
O=C(NC1CC1)C(=O)C(Cc1ccccc1)NC(=O)[C@H]1CCC(=O)N1Cc1c(F)cccc1F (mixture of isomers) [Example 48, (2R)—N-(4-(Cyclopropylamino)-3,4-dioxo-1-phenylbutan-2-yl)-1-(2,6-difluorobenzyl)-5-oxopyrrolidine-2-carboxamide] | ++ (10<Ki(cathepsin B)/Ki(calpain)≦30) | +++ (Ki(cathepsin B)/Ki(calpain) ratio of >30) | 100 to 600 | – | –
NC(=O)C(=O)C(Cc1ccccc1)NC(=O)[C@H]1CCC(=O)N1Cc1ccccc1OC(F)(F)F (stereo partly drawn) [Example 9, (2R)—N-(4-Amino-3,4-dioxo-1-phenylbutan-2-yl)-5-oxo-1-[2-(trifluoromethoxy)-benzyl]pyrrolidine-2-carboxamide] | +++ (Ki(cathepsin L)/Ki(calpain) ratio of >30) | – | 50 to 100 | +++ (Ki(cathepsin S)/Ki(calpain) ratio of >100) | +++ (Ki(cathepsin K)/Ki(calpain) ratio of >30)
NC(=O)C(=O)C(Cc1ccccc1)NC(=O)[C@@H]1CCC(=O)N1Cc1ccccc1 (stereo partly drawn) [Example 2, (2S)—N-(4-Amino-3,4-dioxo-1-phenylbutan-2-yl)-1-benzyl-5-oxopyrrolidine-2-carboxamide] | + (5<Ki(cathepsin L)/Ki(calpain)≦10) | – | 100 to 600 | – | ++ (10<Ki(cathepsin B)/Ki(calpain)≦30)
O=C(NC1CC1)C(=O)C(Cc1ccccc1)NC(=O)[C@H]1CCC(=O)N1Cc1ccc(C(F)(F)F)cc1 (mixture of isomers) [Example 58, (2R)—N-(4-(Cyclopropylamino)-3,4-dioxo-1-phenylbutan-2-yl)-5-oxo-1-(4-(trifluoromethyl)benzyl)pyrrolidine-2-carboxamide] | – | + (5<Ki(cathepsin B)/Ki(calpain)≦10) | 100 to 600 | ++ (30<Ki(cathepsin B)/Ki(calpain)≦100) | + (5<Ki(cathepsin K)/Ki(calpain)≦10)
CCNC(=O)C(=O)C(Cc1ccccc1)NC(=O)[C@H]1CCC(=O)N1Cc1c(F)cccc1F (mixture of isomers) [Example 49, (2R)-1-(2,6-Difluorobenzyl)-N-(4-(ethylamino)-3,4-dioxo-1-phenylbutan-2-yl)-5-oxopyrrolidine-2-carboxamide] | ++ (10<Ki(cathepsin B)/Ki(calpain)≦30) | +++ (Ki(cathepsin B)/Ki(calpain) ratio of >30) | 100 to 600 | – | –
NC(=O)C(=O)C(Cc1ccccc1)NC(=O)[C@H]1CCC(=O)N1Cc1cccc(OC(F)(F)F)c1 (stereo partly drawn) [Example 13, (2R)—N-(4-Amino-3,4-dioxo-1-phenylbutan-2-yl)-5-oxo-1-[3-(trifluoromethoxy)-benzyl]pyrrolidine-2-carboxamide] | – | + (5<Ki(cathepsin B)/Ki(calpain)≦10) | 100 to 600 | ++ (30<Ki(cathepsin B)/Ki(calpain)≦100) | +++ (Ki(cathepsin K)/Ki(calpain) ratio of >30)
NC(=O)C(=O)C(Cc1ccccc1)NC(=O)C1CCS(=O)(=O)N1Cc1ccccc1 (centres unmarked) [Example 10, N-(4-Amino-3,4-dioxo-1-phenylbutan-2-yl)-2-benzylisothiazolidine-3-carboxamide 1,1-dioxide] | ++ (10<Ki(cathepsin B)/Ki(calpain)≦30) | +++ (Ki(cathepsin B)/Ki(calpain) ratio of >30) | < 50 | – | –
O=C(NNC(=O)c1ccccc1)C(=O)C(Cc1ccccc1)NC(=O)[C@H]1CCC(=O)N1Cc1ccccc1 (mixture of isomers) [Example 57, (2R)—N-(4-(2-Benzoylhydrazinyl)-3,4-dioxo-1-phenylbutan-2-yl)-1-benzyl-5-oxopyrrolidine-2-carboxamide] | – | + (5<Ki(cathepsin B)/Ki(calpain)≦10) | 50 to 100 | +++ (Ki(cathepsin S)/Ki(calpain) ratio of >100) | ++ (10<Ki(cathepsin B)/Ki(calpain)≦30)
CCCNC(=O)C(=O)C(Cc1ccccc1)NC(=O)[C@H]1CCC(=O)N1Cc1ccccc1 (mixture of isomers) [Example 26, (2R)-1-Benzyl-N-(3,4-dioxo-1-phenyl-4-(propylamino)butan-2-yl)-5-oxopyrrolidine-2-carboxamide] | ++ (10<Ki(cathepsin B)/Ki(calpain)≦30) | +++ (Ki(cathepsin B)/Ki(calpain) ratio of >30) | 100 to 600 | – | +++ (Ki(cathepsin K)/Ki(calpain) ratio of >30)

Now from value to compound:

Sel cat. L [1] | Sel cat. B [2] | Ki [3] [nM] | Sel cat. S [4] | Sel cat. K [5] | SMILES
++ (10<Ki(cathepsin B)/Ki(calpain)≦30) | ++ (10<Ki(cathepsin B)/Ki(calpain)≦30) | 50 to 100 | ++ (30<Ki(cathepsin B)/Ki(calpain)≦100) | – | NC(=O)C(=O)C(Cc1ccccc1)NC(=O)[C@H]1CCCC(=O)N1Cc1ccccc1 (stereo partly drawn) [Example 14, (2R)—N-(4-Amino-3,4-dioxo-1-phenylbutan-2-yl)-1-benzyl-6-oxopiperidine-2-carboxamide]
– | ++ (10<Ki(cathepsin B)/Ki(calpain)≦30) | 50 to 100 | ++ (30<Ki(cathepsin B)/Ki(calpain)≦100) | ++ (10<Ki(cathepsin B)/Ki(calpain)≦30) | O=C(NCCCc1ccccc1)C(=O)C(Cc1ccccc1)NC(=O)[C@H]1CCC(=O)N1Cc1ccccc1 (mixture of isomers) [Example 33, (2R)-1-Benzyl-N-(3,4-dioxo-1-phenyl-4-(3-phenylpropylamino)butan-2-yl)-5-oxopyrrolidine-2-carboxamide]
++ (10<Ki(cathepsin B)/Ki(calpain)≦30) | ++ (10<Ki(cathepsin B)/Ki(calpain)≦30) | < 50 | – | – | C[C@H]1C[C@H](C(=O)NC(Cc2ccccc2)C(=O)C(N)=O)N(Cc2ccccc2)C1=O (stereo partly drawn) [Example 19, (2R,4S)—N-(4-Amino-3,4-dioxo-1-phenylbutan-2-yl)-1-benzyl-4-methyl-5-oxopyrrolidine-2-carboxamide]
– | ++ (10<Ki(cathepsin B)/Ki(calpain)≦30) | 50 to 100 | ++ (30<Ki(cathepsin B)/Ki(calpain)≦100) | + (5<Ki(cathepsin K)/Ki(calpain)≦10) | O=C(NC1CCCCC1)C(=O)C(Cc1ccccc1)NC(=O)[C@H]1CCC(=O)N1Cc1ccccc1 (mixture of isomers) [Example 56, (2R)-1-Benzyl-N-(4-(cyclohexylamino)-3,4-dioxo-1-phenylbutan-2-yl)-5-oxopyrrolidine-2-carboxamide]
